Each compound was assayed on Bloodstream form of Trypanosoma brucei, strain Lister 427 (assay: Trypanosoma brucei growth inhibition assay (CellTiter-Glo, 24 h)). Conditions: Trypanosoma brucei; T. Brucei Growth Inibition Assay, class symbols; read-out: T. Brucei GI EC50.
Format: cell-based
Procedure, shortened: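 Bloodstream-form T. brucei Lister 427, 1500 parasites per well in supplemented IMDM with 10% FBS, were exposed to compound (DMSO ≤0.25% final) for 24 h at 37 °C. Viability was measured by CellTiter-Glo luminescence.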
CN1CCN(S(=O)(=O)Cc2ccccc2)C(c2ncc(-c3ccc4ccccc4c3)[nH]2)C1 (centres unmarked) [1-(benzylsulfonyl)-4-methyl-2-(5-(naphthalen-2-yl)-1H-imidazol-2-yl)piperazine] showed an EC50 of 1.01 to 5 µM. For COc1ccc2nc(C)n(CC(=O)N3CCC(O)C[C@H]3c3ncc(-c4cc5ccccc5nc4OC)[nH]3)c2c1 (some centres unmarked), the EC50 was 0.51 to 1 µM. For COc1nc2ccccc2cc1-c1cnc([C@@H]2CN(Cc3ccn(C)n3)CCN2C(=O)Cn2c(C(F)(F)F)nc3ccccc32)[nH]1 [(S)-1-(2-(5-(2-methoxyquinolin-3-yl)-1H-imidazol-2-yl)-4-((1-methyl-1H-pyrazol-3-yl)methyl)piperazin-1-yl)-2-(2-(trifluoromethyl)-1H-benzo[d]imidazol-1-yl)ethan-1-one], the EC50 was under 0.1 µM. Work on COc1nc2ccccc2cc1-c1cnc([C@@H]2CN(C3CCC(F)(F)CC3)CCN2C(=O)Cn2c(C(F)(F)F)nc3ccccc32)[nH]1 [(S)-1-(4-(4,4-difluorocyclohexyl)-2-(5-(2-methoxyquinolin-3-yl)-1H-imidazol-2-yl)piperazin-1-yl)-2-(2-(trifluoromethyl)-1H-benzo[d]imidazol-1-yl)ethan-1-one] yielded an EC50 of under 0.1 µM. COc1ccc2nc(C(F)(F)F)n(CC(=O)N3CC[C@H](N[C@H]4CCOC4)C[C@H]3c3ncc(-c4cc5ccccc5nc4OC)[nH]3)c2c1 [2-(6-methoxy-2-(trifluoromethyl)-1H-benzo[d]imidazol-1-yl)-1-((2S,4S)-2-(5-(2-methoxyquinolin-3-yl)-1H-imidazol-2-yl)-4-(((S)-tetrahydrofuran-3-yl)amino)piperidin-1-yl)ethan-1-one] gave an EC50 of under 0.1 µM. Work on COc1ccc2nc(C(F)(F)F)n(CC(=O)N3CCN(CCn4cccn4)CCC3c3ncc(-c4cc5ccccc5nc4OC)[nH]3)c2c1 (centres unmarked) [1-(4-(2-(1H-pyrazol-1-yl)ethyl)-7-(5-(2-methoxyquinolin-3-yl)-1H-imidazol-2-yl)-1,4-diazepan-1-yl)-2-(6-methoxy-2-(trifluoromethyl)-1H-benzo[d]imidazol-1-yl)ethan-1-one] yielded an EC50 of under 0.1 µM. Compound COc1ccc2nc(C(F)(F)F)n(CC(=O)N3CCN(Cc4cnccn4)CCC3c3ncc(-c4cc5ccccc5nc4OC)[nH]3)c2c1 (centres unmarked) [2-(6-methoxy-2-(trifluoromethyl)-1H-benzo[d]imidazol-1-yl)-1-(7-(5-(2-methoxyquinolin-3-yl)-1H-imidazol-2-yl)-4-(pyrazin-2-ylmethyl)-1,4-diazepan-1-yl)ethan-1-one] has an EC50 of under 0.1 µM. CCC(=O)CCCN1CCN(S(=O)(=O)c2ccccc2)C(c2ncc(-c3ccc4ccccc4c3)[nH]2)C1 (centres unmarked) [6-(3-(5-(naphthalen-2-yl)-1H-imidazol-2-yl)-4-(phenylsulfonyl)piperazin-1-yl)hexan-3-one] was tested, and the EC50 was 1.01 to 5 µM. Compound COc1ccc2c(c1)C(CC(=O)N1CCN(CC3CCOC3)CC1c1ncc(-c3ccc4ccccc4c3)[nH]1)C(=O)N2 (centres unmarked) has an EC50 of 1.01 to 5 µM. With CCC(=O)CCCN1CCN(C(=O)Cc2c[nH]c3ncccc23)C(c2ncc(-c3cc4ccccc4nc3OC)[nH]2)C1 (centres unmarked) the EC50 was 0.51 to 1 µM. In the case of COc1ccc2nc(C(F)(F)F)n(CC(=O)N3CCN(CC4CCOC4)C[C@H]3c3ncc(-c4cc5ccccc5nc4OC)[nH]3)c2c1 (stereo partly drawn) [2-(6-methoxy-2-(trifluoromethyl)-1H-benzo[d]imidazol-1-yl)-1-((2S)-2-(5-(2-methoxyquinolin-3-yl)-1H-imidazol-2-yl)-4-((tetrahydrofuran-3-yl)methyl)piperazin-1-yl)ethan-1-one], the EC50 is reported as under 0.1 µM. With CCC(=O)CCCN1CCN(C(=O)C2CCN(C)CC2)C(c2ncc(-c3ccc4ccccc4c3)[nH]2)C1 (centres unmarked) the EC50 was 1.01 to 5 µM. COc1ccc2nc(C(F)(F)F)n(CC(=O)N3CC[C@H](N(C)Cc4nccs4)C[C@H]3c3ncc(-c4cc5ccccc5nc4OC)[nH]3)c2c1 [2-(6-methoxy-2-(trifluoromethyl)-1H-benzo[d]imidazol-1-yl)-1-((2S,4S)-2-(5-(2-methoxyquinolin-3-yl)-1H-imidazol-2-yl)-4-(methyl(thiazol-2-ylmethyl)amino)piperidin-1-yl)ethan-1-one] gave an EC50 of under 0.1 µM. For COc1nc2ccccc2cc1-c1cnc([C@@H]2CN(C[C@@H]3CCOC3)CCN2C(=O)Cn2c(C(F)(F)F)nc3ccccc32)[nH]1 (single isomer, unassigned), the EC50 was under 0.1 µM.
